“Also recorded” adds a separate entry of the source.
How the values were obtained:
UM-UC-3 = test: Cell proliferation assay (CellTiter-Glo), drug combination synergy by Bliss and ZIP models, UM-UC-3; assay type: cell-based, human; settings: for synergy (anti-proliferation effects): combination of compound 1 with KRAS G12C inhibitor (MRTX849, AMG510, ARS1629 or JDQ443), UM-UC-3, SMARCA4 damaging mutation/KRAS G12C, day 7
Experimental: FIG. 3. […] Bladder cancer UM-UC-3 cells (SMARAC4 damaging mutation/KRAS G12C) were treated with KRAS G12C inhibitor (MRTX849, AMG510, ARS1629 or JDQ443) and with a SMARCA2 degrader (compound 1) in a different dose-range. Cell viability was analyzed on day 7 using Cell-titer Glo.
FIG. 6. Bliss and ZIP synergy scores of UM-UC-3 cells treated with a SMARCA2 degrader (compound 1) and a KRAS targeting therapy (MRTX849, AMG510, ARS1629 or JDQ443). Synergistic effect is likely where synergy scores are larger than 10.
(§1) The degree of combination synergy, or antagonism, is quantified by comparing the observed drug combination response against the expected response, calculated using a reference model that assumes no interaction between drugs. Drug synergy was determined using the Bliss and Zero interaction potency (ZIP) reference models.
(§2) The Bliss independence model assumes a stochastic process in which two drugs elicit their effects independently, and the expected combination effect can be calculated based on the probability of independent events; The ZIP model captures the drug interaction relationships by comparing the change in the potency (effect at certain dose level) of the dose-response curves between individual drugs and their combinations. ZIP assumes that two non-interacting drugs are expected to incur minimal changes in their dose-response curves. Model calculations can be found at www.ncbi.nlm.nih.gov/pmc/articles/PMC4759128/.
(§3) Cell proliferation assay: Cells were plated in 384-well white-walled, clear-bottom plates in standard tissue culture conditions. 250 cells per well of the NCI-H2030 (ATCC, CRL-5914) cell line was seeded in RPMI-1640 medium, FBS serum to a final concentration of 10%, 100 cells per well of the UM-UC-3 (ATCC, CRL-1749) cell line was seeded in EMEM medium, FBS serum to a final concentration of 10%. The day after plating, serial dilutions of two compounds were plated in dose-response matrices in quadruplicate, including DMSO controls, using a Tecan D300e Digital Dispenser (Tecan Group Ltd. Männedorf, Switzerland). All wells were normalized to highest total volume of DMSO. 7 days later the CellTiter-Glo® 2.0 Cell Viability Assay (CTG) (#G9242, Promega, Madison, WI) was used to measure cell viability effects of drug combinations. The expected drug combination responses were calculated based on Bliss and ZIP reference model using SynergyFinder (Ianevski et al, 2020). Deviations between observed and expected responses with positive and negative values denote synergy and antagonism respectively. Synergistic effect is likely where synergy scores are larger than 10. MRTX849 (Adagrasib, Catalog No. S8884) and ARS-1620 (Catalog No. S8707) were purchased from Selleck Chemicals. AMG510 (Sotorasib, Catalog No. HY-114277) and JDQ-443 (Catalog No. HY-139612) were purchased from MedChemExpress.
UC-UM-3 is a human bladder transitional cell carcinoma cancer cell line that expresses SMARCA4 damaging mutation and KRAS G12C mutation. Combination therapy was applied to UM-UC-3 cells and % viable cells was calculated (FIG. 3). Bliss and ZIP scores are larger than 10, which indicates compound 1 and KRAS G12C inhibitors will likely show synergistic effects (FIG. 6).

NCI-H2030 = test: Cell proliferation assay (CellTiter-Glo), drug combination synergy by Bliss and ZIP models, NCI-H2030; assay type: cell-based; settings: combination of compound 1 with KRAS G12C inhibitor (MRTX849, AMG510, ARS-1620 or JDQ-443); for synergy (anti-proliferation effects): NCI-H2030, SMARCA4 low/KRAS G12C, day 7; for Bliss synergy score / ZIP synergy score: NCI-H2030, synergistic effect likely where scores larger than 10
Experimental: FIG. 2. […] Lung cancer NCI-H2030 cells (SMARAC4 low/KRAS G12C) were treated with KRAS G12C inhibitor (MRTX849, AMG510, ARS1629 or JDQ-443) and with a SMARCA2 degrader (compound 1) in a different dose-range. Cell viability was analyzed on day 7 using Cell-titer Glo.
FIG. 5. Bliss and ZIP synergy scores of H2030 cells treated with a SMARCA2 degrader (compound 1) and a KRAS targeting therapy (MRTX849, AMG510, ARS1629 or JDQ443). Synergistic effect is likely where synergy scores are larger than 10.
as §1, §2, §3
NCI-H2030 is a non-small cell lung cancer cell line that express low SMARCA4 and KRAS G12C mutation. Combination therapy was applied to H2030 cells and % viable cells was calculated (see FIG. 2). Bliss and ZIP scores are larger than 10, which indicates compound 1 and KRAS G12C inhibitors will likely show synergistic effects (FIG. 5).

NCI-H358 cells = test: Cell viability (Cell-titer Glo), drug combination, control line NCI-H358; assay type: cell-based; settings: combination of compound 1 with KRAS G12C inhibitor (MRTX849 or AMG510); NCI-H358, SMARCA4 WT/KRAS G12C; day 7
Experimental: (§4) FIG. 4. […] Lung cancer NCI-H838 cells (SMARAC4 damaging mutation/KRAS WT) or NCI-H358 cells (SMARCA4 WT/KRAS G12C) were treated with KRAS G12C inhibitor (MRTX849 or AMG510) and with a SMARCA2 degrader (compound 1) in a different dose-range. Cell viability was analyzed on day 7 using Cell-titer Glo.
as §3, with “Synergistic effect is likely where synergy scores are larger than 10. MRTX849 (Adagrasib, Catalog No. S8884) and ARS-1620 (Catalog No. S8707) were purchased from Selleck Chemicals. AMG510 (Sotorasib, Catalog No. HY-114277) and JDQ-443 (Catalog No. HY-139612) were purchased from MedChemExpress.” left out

H2030 xenograft tumors = test: Tumor volume in mice with H2030 xenograft tumors; assay type: in vivo; settings: for tumor volume reduction (synergy): combination: compound 1 100 mg/kg s.c. Q3D and MRTX849 10 mg/kg p.o. QD, H2030
Experimental: FIG. 8. Plot of mean tumor volume vs. dosing time for H2030 cells treated with a SMARCA2 degrader (compound 1) and a KRAS targeting therapy (MRTX849).
(§5) The concentration of compound 1 was 100 mg/kg s.c. Q3D and the concentration of MRTX849 was 10 mg/kg p.o. QD. Statistical analysis used the two-tailed Mann-Whitney test versus vehicle, with *P<0.05, **P<0.01 and ***P<0.001.

NCI-H838 cells = test: Cell viability (Cell-titer Glo), drug combination, control line NCI-H838; assay type: cell-based; settings: combination of compound 1 with KRAS G12C inhibitor (MRTX849 or AMG510); NCI-H838, SMARCA4 damaging mutation/KRAS WT; day 7
Experimental: as §4
as §3, with “Synergistic effect is likely where synergy scores are larger than 10. MRTX849 (Adagrasib, Catalog No. S8884) and ARS-1620 (Catalog No. S8707) were purchased from Selleck Chemicals. AMG510 (Sotorasib, Catalog No. HY-114277) and JDQ-443 (Catalog No. HY-139612) were purchased from MedChemExpress.” left out

UM-UC-3 xenograft tumors = test: Tumor volume in mice with UM-UC-3 xenograft tumors; assay type: in vivo; settings: for tumor volume reduction (synergy): combination: compound 1 100 mg/kg s.c. Q3D and MRTX849 10 mg/kg p.o. QD, UM-UC-3
Experimental: FIG. 7. Plot of mean tumor volume vs. dosing time for UM-UC-3 cells treated with a SMARCA2 degrader (compound 1) and a KRAS targeting therapy (MRTX849).
as §5

[1] = combination of compound 1 with KRAS G12C inhibitors, UM-UC-3, synergistic effect likely where scores larger than 10

Row | Structure (SMILES) | synergy (anti-proliferation effects) (UM-UC-3) | synergy (anti-proliferation effects) (NCI-H2030) | Bliss synergy score (NCI-H2030) | ZIP synergy score (NCI-H2030) | synergy (anti-proliferation effects) (NCI-H2030; listed as ARS1629) | Bliss synergy score (UM-UC-3; [1]) | ZIP synergy score (UM-UC-3; [1]) | synergistic effects (cell viability) (NCI-H358 cells) | enlargement of tumor volumes (H2030 xenograft tumors; combination of compound 1 and a KRAS targeting therapy, mice with H2030 xenograft tumors) | tumor volume reduction (synergy) (H2030 xenograft tumors) | synergistic effects (cell viability) (NCI-H838 cells) | enlargement of tumor volumes (UM-UC-3 xenograft tumors; combination of compound 1 and a KRAS targeting therapy, mice with UM-UC-3 xenograft tumors) | tumor volume reduction (synergy) (UM-UC-3 xenograft tumors)
1 | C=CC(=O)N1CCN(c2nc(=O)n(-c3c(C)ccnc3C(C)C)c3nc(-c4c(O)cccc4F)c(F)cc23)[C@@H](C)C1 (atropisomer, axis not shown) [JDQ-443] | synergistic anti-proliferation effects | synergistic anti-proliferation effects; also recorded: Excellent synergy | > 10 | > 10 |  |  |  |  |  |  |  |  | 
2 | C=CC(=O)N1CCN(c2ncnc3c(F)c(-c4c(O)cccc4F)c(Cl)cc23)CC1 [ARS-1620] | synergistic anti-proliferation effects | Excellent synergy | > 10 | > 10 | synergistic anti-proliferation effects |  |  |  |  |  |  |  | 
3 | Cc1ncsc1-c1ccc([C@H](C)NC(=O)[C@@H]2C[C@@H](O)CN2C(=O)[C@@H](c2cc(O[C@@H](C)CN3CC[C@@H](N4CCN5c6cc(-c7ccccc7O)nnc6NC[C@H]5C4)C3)no2)C(C)C)cc1 [Compound 1] | synergistic anti-proliferation effects; also recorded: Excellent synergy; also recorded: potent synergistic interaction | synergistic anti-proliferation effects; also recorded: Excellent synergy; also recorded: potent synergistic interaction | > 10 | > 10 |  | > 10 | > 10 | do not show synergistic effects | can slow down the enlargement of tumor volumes | synergistic effects for tumor volume reduction | do not show synergistic effects | can slow down the enlargement of tumor volumes | synergistic effects for tumor volume reduction
4 | C=C(F)C(=O)N1CCN(c2nc(OC[C@@H]3CCCN3C)nc3c2CCN(c2cccc4cccc(Cl)c24)C3)C[C@@H]1CC#N [MRTX849, adagrasib] | synergistic anti-proliferation effects | synergistic anti-proliferation effects; also recorded: Excellent synergy | > 10 | > 10 |  |  |  | do not show synergistic effects |  | synergistic effects for tumor volume reduction | do not show synergistic effects |  | synergistic effects for tumor volume reduction
